The conditions of series [1]: human, in vivo, po.
For the next series, the system named is men and women with OAB. Put plainly: Phase 2b efficacy study in men and women with OAB. The format is in vivo, human. The source says:
Part 2 was designed to continue to assess the safety and efficacy of concomitant dosing. […] Subjects in both Part 1 and Part 2 had the option of enrolling in a 1-year extension. Participants were required to keep a voiding diary, recording the occurrence of each strong urge, total incontinence, and urge incontinence episode. Efficacy data for Part 1 and Part 2 are summarized herein.
The total number of urgency incontinence episodes must have exceeded the total number of stress incontinence episodes for all subjects.
Conversely, a dose dependent effect on urge incontinence or total incontinence was not observed.

Series [2] deals with patients with overactive bladder. In words: Phase 2 safety data, adverse events (main study and 52-week extension). Also on record: Drug-related AE, n subjects / Drug-related AE, % subjects / Discontinuation due to AE, n subjects / Discontinuation due to AE, % subjects / Discontinuation due to drug-related AE, n subjects / Dry eye, n subjects / Dry eye, % subjects / Constipation, n subjects / Constipation, % subjects / Diarrhea, n subjects / Diarrhea, % subjects / Dry mouth, n subjects / Dry mouth, % subjects / Alanine aminotransferase increased, n subjects / Alanine aminotransferase increased, % subjects / Aspartate aminotransferase increased, n subjects / Aspartate aminotransferase increased, % subjects / Arthralgia, n subjects / Arthralgia, % subjects / Dizziness, n subjects / Dizziness, % subjects / Dysuria, n subjects / Dysuria, % subjects: dose or concentration left out as unconfirmed. The source says:
A placebo group was included in the main study, and a group that received tolterodine monotherapy was included in the main study and in the extension.

The subject of a further series is patients with OAB. Put plainly: Phase 2b cardiovascular safety: orthostatic AEs, HR and BP changes. The format is in vivo, human. As to conditions: tolterodine 4 mg. From the text: None led to discontinuation. The overall incidence of orthostatic symptoms was low.
Small differences in the percent of subjects exceeding categorical heart rate and blood pressure thresholds for vibegron were similar to those in the tolterodine arm.

Series [3] in a line: Mass balance study with [14C]vibegron in healthy subjects. As to conditions: human plasma, 2 and 4 hr.
The test system of the next series is QTc interval. Put plainly: Thorough QT study, single oral doses. As to conditions: single dose 400 mg moxifloxacin.
[4] abbreviates: tolterodine ER 4 mg, OAB wet subjects.
Where [5] appears, read: 3 consecutive post-baseline visits.

Where two headings read alike, the source gives them in different places.

In series [1] (0.15 mg), `C#C[C@]1(O)CC[C@H]2[C@@H]3CCC4=CC(=O)CC[C@@H]4[C@H]3CC[C@@]21CC` [LNG, levonorgestrel] displayed an AUC of conmed, geometric mean of 31 ng·h/mL.
On to `Cc1ccc(O)c([C@H](CCN(C(C)C)C(C)C)c2ccccc2)c1` [Tolterodine ER, tolterodine], for which, in the series with men and women with OAB (tolterodine ER 4 mg), the “Micturitions, change from baseline Week 8, mean” value was −1.73; the “Micturitions, daily number, Week 8 mean” value is reported as 9.24; the “Micturitions, difference from placebo Week 8, difference in LS means” value was −0.54; the “Urgency episodes, change from baseline Week 8, mean” value is −2.52. For the same compound, in the series with men and women with OAB (tolterodine ER 4 mg), the “Urgency episodes, daily number, Week 8 mean” value is given as 3.91 and the “Urgency episodes, difference from placebo Week 8, difference in LS means” value is −0.94. For the same compound, the “Change from baseline in volume voided per micturition, difference from placebo in LS means” value in the series on men and women with OAB (tolterodine ER 4 mg once daily, Week 8) turned out to be 30.77 mL. In the series with men and women with OAB (setting [4]), the “Total incontinence episodes, change from baseline Week 8, mean” value is recorded as −1.80; the “Total incontinence episodes, daily number, Week 8 mean” value stood at 1.32; the “Total incontinence episodes, difference from placebo Week 8, difference in LS means” value is listed as −0.34; the “Urgency incontinence episodes, change from baseline Week 8, mean” value is −1.67. In addition, in the series on men and women with OAB (setting [4]), the “Urgency incontinence episodes, daily number, Week 8 mean” value worked out at 1.15 and the “Urgency incontinence episodes, difference from placebo Week 8, difference in LS means” value is reported as −0.46. For the same compound, in series [2] (4 mg, first 12 weeks), the “Accidental overdose, % subjects” value is reported as “(2.3) %”; the “Accidental overdose, n subjects” value turned out to be 6; the “Fatigue, % subjects” value was “(2.3) %”; the “Fatigue, n subjects” value is 6. In addition, in series [2] (4 mg, first 12 weeks), the “Headache, % subjects” value is on record as “(3.5) %”; the “Headache, n subjects” value was found to be 9; the “Nasopharyngitis, % subjects” value is listed as “(1.6) %”; the “Nasopharyngitis, n subjects” value was determined as 4. Further, in series [2] (4 mg, first 12 weeks), the “Nausea, % subjects” value is given as “(2.3) %”; the “Nausea, n subjects” value is 6; the “Osteoarthritis, % subjects” value is “(0.0) %”; the “Osteoarthritis, n subjects” value worked out at 0. Besides, in series [2] (4 mg, first 12 weeks), the “Pain in extremity, % subjects” value is “(0.4) %”; the “Pain in extremity, n subjects” value was determined as 1; the “Serious AE, % subjects” value was “(1.2) %”; the “Serious AE, n subjects” value came to 3. For the same compound, in series [2] (4 mg, first 12 weeks), the “Sinusitis, % subjects” value is on record as “(0.4) %”; the “Sinusitis, n subjects” value is listed as 1; the “Urinary tract infection, % subjects” value is given as “(4.7) %”; the “Urinary tract infection, n subjects” value is 12. For the same compound, in series [2] (4 mg, first 12 weeks), the “≥1 AE, % subjects” value was “(45.1) %” and the “≥1 AE, n subjects” value is on record as 116. The compound also registered a frequency of injuries in series [2] (Phase 2 study arms) of 2.1%. Further, in series [2] (first 12 weeks), the “Alanine aminotransferase increased, % subjects” value is listed as “(0.4) %”; the “Alanine aminotransferase increased, n subjects” value turned out to be 1; the “Arthralgia, % subjects” value was “(1.2) %”; the “Arthralgia, n subjects” value is given as 3. Further, in series [2] (first 12 weeks), the “Aspartate aminotransferase increased, % subjects” value was “(0.0) %”; the “Aspartate aminotransferase increased, n subjects” value turned out to be 0; the “Constipation, % subjects” value is on record as “(1.9) %”; the “Constipation, n subjects” value turned out to be 5. In addition, in series [2] (first 12 weeks), the “Diarrhea, % subjects” value is listed as “(3.5) %”; the “Diarrhea, n subjects” value is 9; the “Discontinuation due to AE, % subjects” value is on record as “(1.6) %”; the “Discontinuation due to AE, n subjects” value amounted to 4. Moreover, in series [2] (first 12 weeks), the “Discontinuation due to drug-related AE, n subjects” value is given as 0; the “Dizziness, % subjects” value is recorded as “(1.9) %”; the “Dizziness, n subjects” value is 5; the “Drug-related AE, % subjects” value was “(16.3) %”. Moreover, in series [2] (first 12 weeks), the “Drug-related AE, n subjects” value was determined as 42; the “Dry eye, % subjects” value is given as “(3.9) %”; the “Dry eye, n subjects” value is 10; the “Dry mouth, % subjects” value is “(8.6) %”. In series [2] (first 12 weeks), the “Dry mouth, n subjects” value is reported as 22; the “Dysuria, % subjects” value is recorded as “(1.2) %”; the “Dysuria, n subjects” value came out at 3. This compound yielded an SAEs reported in series [2] (tolterodine 4 mg, main study) of 3. Moreover, in the series on patients with OAB, the “DBP change from baseline, mean (week 1)” value is given as −0.12 mm Hg; the “DBP change from baseline, mean maximum (week 1 to 8)” value is given as 5.19 mm Hg; the “HR change from baseline, mean (week 1)” value is listed as 0.68 bpm; the “HR change from baseline, mean maximum (week 1 to 8)” value stood at 5.66 bpm. Besides, in the series with patients with OAB, the “SBP change from baseline, mean (week 1)” value was found to be 0.04 mm Hg and the “SBP change from baseline, mean maximum (week 1 to 8)” value was 7.29 mm Hg. Further, in the series with patients with OAB (setting [5]), the “DBP change from baseline ≥5 mm Hg, subjects” value is “(12.4) %”; the “DBP change from baseline ≥10 bpm, subjects” value is “(5.4) %”; the “DBP change from baseline ≥15 bpm, subjects” value was “(1.2) %”; the “HR change from baseline ≥5 mm Hg, subjects” value is on record as “(12.0) %”. Besides, in the series with patients with OAB (setting [5]), the “HR change from baseline ≥10 bpm, subjects” value is listed as “(4.5) %”; the “HR change from baseline ≥15 bpm, subjects” value is listed as “(1.7) %”; the “SBP change from baseline ≥5 mm Hg, subjects” value is on record as “(16.9) %”; the “SBP change from baseline ≥10 bpm, subjects” value is “(7.9) %”. Besides, the “SBP change from baseline ≥15 bpm, subjects” value in the series on patients with OAB (setting [5]) is listed as “(2.9) %”.
With `O=C(O)C1OC(OC(c2ccccc2)C2CCC(Cc3ccc(NC(=O)C4CCc5nccc(=O)n54)cc3)N2)C(O)C(O)C1O` (stereo not shown) [M7], the “share of total circulating drug-related material” value in series [3] is recorded as 12-14%.
In the case of `COc1c(N2C[C@@H]3CCCN[C@@H]3C2)c(F)cc2c(=O)c(C(=O)O)cn(C3CC3)c12` [moxifloxacin, reference compound], in the series on QTc interval, the “effect on QTcF” value was “statistically significant effect”.
Consider `C#C[C@]1(O)CC[C@H]2[C@@H]3CCc4cc(O)ccc4[C@H]3CC[C@@]21C` [EE, ethinyl estradiol], for which, in series [1] (0.03 mg), the AUC of conmed, geometric mean worked out at 0.81 ng·h/mL.
